Drawing on patent publication US20250122210A1, “SMALL MOLECULE INHIBITORS OF KRAS G12D MUTANT” (DANA-FARBER CANCER INSTITUTE, INC., priority 2021, published 2025), this text covers IC50 and inhibition for two compounds.

A value given as a limit tells only on which side of the number the result lay.

Format in all cases: cell-based
One test deals with AGS cells. The test can be described thus: Anti-proliferative activity in AGS cells (CellTiter-Glo). The settings on record: Homo sapiens, 72 h, AGS cells (KRAS G12D), three days, read-out: IC50 (cell viability). The protocol: AGS cells were treated with KRAS inhibitors at the density of 800 cells/well in 384-well plate for three days. Cell viability was evaluated using CelITiter-Glo® Luminescent Cell Viability Assay. […] AGS cells harbor KRAS G12D mutation. The improved antiproliferation effects of the compounds indicate stronger inhibition towards G12D mutation.

Another test has as its system MIA-PaCa-2 cells. The test can be described thus: Anti-proliferative activity in MIA-PaCa-2 cells (CellTiter-Glo). The settings on record: Homo sapiens, 72 h, MIA-PaCa-2 cells (KRAS G12C), three days, read-out: IC50 (cell viability). The protocol:
MIA-PaCa-2 cells were treated with KRAS inhibitors at the density of 800 cells/well in 384-well plate for three days. Cell viability was evaluated using CellTiter-Glo® Luminescent Cell Viability Assay.

In test [1] the test system is downstream signaling (p-ERK) in PANC-1 cells (KRAS G12D). The test can be described thus: Downstream evaluation in PANC-1 cells (p-ERK immunoblot). The settings on record: Homo sapiens, 8 h and 24 h, read-out: IC50 of inhibition of downstream signaling. Here is the method: PANC-1 cells were treated with Compound 006 (DGY-12-161) in the 6-well plate at indicated concentrations for 8 h and 24 h, respectively. The intensities of the bands were quantified in LICOR Odyssey® CLx Imaging System. PANC-1 cells harbor KRAS G12D mutation.

For test [2], the system named is p-ERK in PC-9 cells (KRAS wild-type). The test can be described thus: Downstream evaluation in PC-9 cells (p-ERK immunoblot). The settings on record: Homo sapiens, 8 h and 24 h, read-out: inhibition of the downstream signaling measured by p-ERK. Here is the method: PC-9 cells were treated with Compound 006 (DGY-12-161) in the 6-well plate at indicated concentrations for 8 h and 24 h, respectively. The intensities of the bands were quantified in LICOR Odyssey® CLx Imaging System. PC-9 cells are KRAS wild-type.

On to `Oc1cc(-c2c(Cl)cc3c(N4[C@@H]5CC[C@H]4CNC5)nc(OCC45CCCN4CCC5)nc3c2F)c2ccccc2c1` [Compound 001, 4-(4-((1R,5S)-3,8-diazabicyclo[3.2.1]octan-8-yl)-6-chloro-8-fluoro-2-((tetrahydro-1H-pyrrolizin-7a(5H)-yl)methoxy)quinazolin-7-yl)naphthalen-2-ol], for which the IC50 with AGS cells stood at 0.6 µM; in the test with MIA-PaCa-2 cells it was 2.3 µM.
As to `CN(C)C1CN(c2nc(N3[C@@H]4CC[C@H]3CNC4)c3cc(Cl)c(-c4cc(O)cc5ccccc45)c(F)c3n2)C1` [Compound 006, 4-(4-((1R,5S)-3,8-diazabicyclo[3.2.1]octan-8-yl)-6-chloro-2-(3-(dimethylamino)azetidin-1-yl)-8-fluoroquinazolin-7-yl)naphthalen-2-ol], the IC50 is 1.4 µM with AGS cells, below 10 µM in test [1] and 2.2 µM with MIA-PaCa-2 cells. In addition, in test [2], the inhibition at 10 µM is around 50%.
